Measured values from paper PMC12290638, “Cubebin, a Lignan Isolated from Drimys andina, Exhibits Potent and Selective Antiparasitic Activity against Angiostrongylus cantonensis” (ACS Omega, 2025).
“Also recorded” adds a separate entry of the source. Read-outs that look alike come from different tables or passages of the source.

How the values were obtained:
[1] = tested on: Vero cells (monkey kidney epithelial cells); test: Cytotoxicity assay (MTT), Vero cells; format: cell-based; conditions: at concentrations up to 200 μM
Method: (§1) HaCaT cells (human keratinocytes) were obtained from the Banco de Células do Rio de Janeiro (Duque de Caxias, RJ, Brazil), and Vero cells (monkey kidney epithelial cells) were purchased from the American Type Culture Collection (ATCC CCL-81; Manassas, V). Cells were cultured in DMEM supplemented with 2 mM L-glutamine (Vitrocell), 100 U/mL penicillin, 100 μg/mL streptomycin, and 10% heat-inactivated fetal bovine serum, and maintained at 37 °C in a humidified atmosphere containing 5% CO2.
(§2) Cytotoxicity was evaluated using the MTT assay as previously described. Briefly, cells were seeded into 96-well plates (Corning) at a density of 2 × 10^3 cells per well and exposed to cubebin. The initial concentration tested was 500 μM, followed by 3-fold serial dilutions. Doxorubicin (15 μM) served as the positive control, while 0.5% DMSO was used as negative control. After 24 h of incubation at 37 °C with 5% CO2, MTT solution (Sigma) was added, and plates were incubated for an additional 4 h. Absorbance was measured at 595 nm using a spectrophotometer (Epoch, BioTek Instruments, Winooski, VT). Cell viability was expressed as a percentage relative to control wells. All assays were performed in triplicate and repeated independently three times.
(§3) EC50 and CC50 values were calculated from nonlinear sigmoidal dose–response curves using GraphPad Prism version 8.0 (San Diego, CA). Group differences were analyzed using one-way ANOVA followed by Tukey’s post hoc test. A P-value of <0.05 was considered statistically significant.

[2] = Cytotoxicity assay (MTT), Vero cells; format: cell-based, monkey; conditions: monkey, Vero cells, MTT, 48 h exposure per figure legend (method: 24 h), read-out: mammalian cells CC50, monkey
Method: as §1, §2, §3

[3] = tested on: Angiostrongylus cantonensis first-stage (L1) larvae; test: Antiparasitic assay with A. cantonensis L1 larvae (motility); format: cell-based; conditions: for EC50: Angiostrongylus cantonensis, read-out: A. cantonensis EC50, L1; for selectivity index, L1: SI = CC50 (human HaCaT cells)/EC50 (L1)
Method: (§4) The life cycle of A. cantonensis (NPDN-AC strain) was maintained at the Research Center on Neglected Diseases, Guarulhos University, using either Biomphalaria glabrata (freshwater snails) or Achatina fulica (terrestrial mollusks) as intermediate hosts, and Wistar rats (Rattus norvegicus) as definitive hosts. All animals were maintained under controlled conditions (22 °C, ∼50% humidity) with ad libitum access to food and water.
First-stage larvae (L1) of A. cantonensis were isolated from the feces of infected Wistar rats using the Rugai sedimentation technique, followed by washing in RPMI 1640 medium containing antibiotics. Approximately 50 larvae were transferred to each well of a 96-well plate. Cubebin and albendazole (positive control) were tested starting at 100 μM using a serial dilution format for EC50 determination. Plates were incubated at 21 °C. Untreated larvae served as negative controls. […] Efficacy was defined as ≥60% of larvae becoming immobile after 24 h.
as §3

[4] = tested on: Caenorhabditis elegans (Bristol N2 strain) L4 larvae; test: Lethal toxicity assay in C. elegans; format: in vivo; conditions: for C. elegans LD50 (lethal concentration 50%): L4 larvae, immobility, 72 h exposure per b20 (method b64: 24 h); for toxicity in C. elegans: cubebin at concentrations up to 1000 μM
Method: The nematode C. elegans (Bristol N2 strain) was maintained on nematode growth medium (NGM) plates seeded with Escherichia coli […].
Synchronized fourth-stage larvae (L4) of C. elegans were transferred to 96-well plates containing M9 medium, with approximately 60 larvae per well. Cubebin was tested at concentrations starting from 1000 μM. Ivermectin (10 μM) served as the positive control, while 0.5% DMSO was used as the negative control. After 24 h of incubation at 21 °C, larval viability was evaluated based on movement. Toxicity was defined as ≥60% immobility.

[5] = tested on: Angiostrongylus cantonensis infective third-stage (L3) larvae; test: Antiparasitic assay with A. cantonensis L3 larvae (motility); format: cell-based; conditions: for EC50: read-out: A. cantonensis EC50, L3; for selectivity index, L3: SI = CC50 (human HaCaT cells)/EC50 (L3)
Method: as §4
Third-stage larvae (L3) of A. cantonensis were obtained from infected A. fulica via artificial digestion in HCl-pepsin solution, followed by sedimentation using the modified Rugai method. Approximately 50 larvae were added per well in 96-well plates. Cubebin and albendazole were tested starting at 100 μM in a serial dilution format for EC50 estimation. Plates were incubated at 21 °C, and larval viability was assessed at 0 and 24 h using an inverted microscope. […] Efficacy was defined as ≥60% immobility after 24 h.
as §3

[6] = tested on: HaCaT cells (human keratinocytes); test: Cytotoxicity assay (MTT), HaCaT cells; format: cell-based; conditions: at concentrations up to 200 μM
Method: as §1, §2, §3

[7] = Cytotoxicity assay (MTT), HaCaT cells; format: cell-based, human; conditions: human, HaCaT cells, MTT, 48 h exposure per figure legend (method: 24 h), read-out: mammalian cells CC50, human
Method: as §1, §2, §3

[8] = 24 h, score 1 = immotile to 4 = highly active

CCCSc1ccc2nc(NC(=O)OC)[nH]c2c1 [albendazole, reference compound]
cytotoxicity in Vero cells [1]: no cytotoxicity | CC50 at 48 h [2]: > 200 µM | EC50 ([3]; 24 h): 12.8 ± 1.3 µM | selectivity index, L1 [3]: >15.6 | C. elegans LD50 (lethal concentration 50%) [4]: 13.6 ± 1.1 µM | toxicity in C. elegans [4]: potent toxicity | EC50 ([5]; Angiostrongylus cantonensis, 24 h): 12.3 ± 1.9 µM | selectivity index, L3 [5]: >16.2 | cytotoxicity in HaCaT cells [6]: no cytotoxicity | CC50 at 48 h [7]: > 200 µM

OC1OCC(Cc2ccc3c(c2)OCO3)C1Cc1ccc2c(c1)OCO2 (centres unmarked) [cubebin]
cytotoxicity in Vero cells [1]: no cytotoxicity | CC50 at 48 h ([2]; Vero cells (monkey kidney epithelial cells, ATCC CCL-81)): > 200 µM | larval viability (motility) score, L1 [3, 8]: 1 | EC50 ([3]; first-stage (L1) larvae, 24 h, 21 °C, immobility, mean ± SD, three independent experiments): 4.7 ± 0.8 µM | selectivity index, L1 [3]: >42.5 | C. elegans LD50 (lethal concentration 50%) [4]: >1000 µM | toxicity in C. elegans [4]: no observable toxicity; also recorded: nontoxic | larval viability (motility) score, L3 [5, 8]: 1 | EC50 ([5]; Angiostrongylus cantonensis, 24 h, infective third-stage (L3) larvae, 24 h, 21 °C, immobility, mean ± SD, three independent experiments): 15.3 µM | selectivity index, L3 [5]: >13.1 | EC50 ([5]; infective third-stage (L3) larvae, 24 h, 21 °C, immobility, mean ± SD, three independent experiments): 15.2 ± 0.9 µM | cytotoxicity in HaCaT cells [6]: no cytotoxicity | CC50 at 48 h ([7]; HaCaT cells (human keratinocytes)): > 200 µM
